Assays:
Staphylococcus aureus [1] = assay: Antimicrobial activity against Staphylococcus aureus 29213 assessed as absence bacterial growth measured after 18 to 24 hrs incubation by NCCLS method; assay type: functional; details: time 18-24 hrs
Escherichia coli [2] = assay: Antimicrobial activity against Escherichia coli K88 assessed as bacterial killing measured after 16 hrs incubation; assay type: functional
Pseudomonas aeruginosa [3] = assay: Antimicrobial activity against Pseudomonas aeruginosa 27853 assessed as absence bacterial growth measured after 18 to 24 hrs incubation by NCCLS method; assay type: functional; details: time 18-24 hrs
Staphylococcus aureus [4] = assay: Antimicrobial activity against Methicillin-resistant Staphylococcus aureus 43300 assessed as absence bacterial growth measured after 18 to 24 hrs incubation by NCCLS method; assay type: functional; details: time 18-24 hrs
Escherichia coli [5] = assay: Antimicrobial activity against Escherichia coli 25922 assessed as absence bacterial growth measured after 18 to 24 hrs incubation in presence of NaCl by NCCLS method; assay type: functional; details: time 18-24 hrs
Escherichia coli [6] = assay: Antimicrobial activity against Escherichia coli 25922 assessed as absence bacterial growth measured after 18 to 24 hrs incubation by NCCLS method; assay type: functional; details: time 18-24 hrs
Listeria monocytogenes [7] = assay: Antimicrobial activity against Listeria monocytogenes 1.10753 assessed as absence bacterial growth measured after 18 to 24 hrs incubation by NCCLS method; assay type: functional; details: time 18-24 hrs
Escherichia coli [8] = assay: Antimicrobial activity against Escherichia coli 25922 assessed as absence bacterial growth measured after 18 to 24 hrs incubation in presence of FeCl3 by NCCLS method; assay type: functional; details: time 18-24 hrs
Acinetobacter baumannii [9] = assay: Antimicrobial activity against Acinetobacter baumannii 1.6769 assessed as bacterial killing measured after 16 hrs incubation; assay type: functional
Salmonella typhimurium [10] = assay: Antimicrobial activity against Salmonella typhimurium 14028 assessed as bacterial killing measured after 16 hrs incubation; assay type: functional, Salmonella enterica subsp. enterica serovar Typhimurium; details: Salmonella enterica
Bacillus cereus [11] = assay: Antimicrobial activity against Bacillus cereus 1.932 assessed as bacterial killing measured after 16 hrs incubation; assay type: functional
[12] = Hemolytic activity in human RBC at effective concentration at 128 uM measured after 1 hr by microplate reader relative to control; assay type: toxicity, cell-based, Erythrocyte; details: human red blood cells (erythrocytes), read-out: Activity
Salmonella typhimurium [13] = assay: Antimicrobial activity against Salmonella typhimurium C7731 assessed as bacterial killing measured after 16 hrs incubation; assay type: functional, Salmonella enterica subsp. enterica serovar Typhimurium; details: Salmonella enterica
Escherichia coli [14] = assay: Antimicrobial activity against Escherichia coli 25922 assessed as absence bacterial growth measured after 18 to 24 hrs incubation in presence of 25% serum by NCCLS method; assay type: functional; details: time 18-24 hrs
Escherichia coli [15] = assay: Antimicrobial activity against Escherichia coli 25922 assessed as absence bacterial growth measured after 18 to 24 hrs incubation in presence of 50% serum by NCCLS method; assay type: functional; details: time 18-24 hrs
Escherichia coli [16] = assay: Antimicrobial activity against Escherichia coli K88 assessed as absence bacterial growth measured after 18 to 24 hrs incubation by NCCLS method; assay type: functional; details: time 18-24 hrs
Escherichia coli [17] = assay: Antimicrobial activity against Escherichia coli 25922 assessed as bacterial killing measured after 16 hrs incubation; assay type: functional
Salmonella typhimurium [18] = assay: Antimicrobial activity against Salmonella typhimurium 14028 assessed as absence bacterial growth measured after 18 to 24 hrs incubation by NCCLS method; assay type: functional, Salmonella enterica subsp. enterica serovar Typhimurium; details: Salmonella enterica, time 18-24 hrs
Escherichia coli [19] = assay: Antimicrobial activity against Escherichia coli 25922 assessed as absence bacterial growth measured after 18 to 24 hrs incubation in presence of MgCl2 by NCCLS method; assay type: functional; details: time 18-24 hrs
[20] = Antimicrobial activity against Salmonella pullorum C7913 assessed as bacterial killing measured after 16 hrs incubation; assay type: functional, Salmonella enterica subsp. enterica serovar Pullorum; details: Salmonella enterica
Bacillus cereus [21] = assay: Antimicrobial activity against Bacillus cereus 1.932 assessed as absence bacterial growth measured after 18 to 24 hrs incubation by NCCLS method; assay type: functional; details: time 18-24 hrs
[22] = test system: Staphylococcus epidermidis; assay: Antimicrobial activity against Staphylococcus epidermidis 12228 assessed as bacterial killing measured after 16 hrs incubation; assay type: functional
Erythrocyte = assay: Hemolytic activity in human RBC at effective concentration measured after 1 hr by microplate reader analysis; assay type: toxicity, cell-based
[23] = Cytotoxicity against mouse RAW264.7 cells assessed as cell survival rate measured after 8 hrs by MTT assay; assay type: toxicity, cell-based
Enterococcus faecalis [24] = assay: Antimicrobial activity against Enterococcus faecalis 29212 assessed as absence bacterial growth measured after 18 to 24 hrs incubation by NCCLS method; assay type: functional; details: time 18-24 hrs
Escherichia coli [25] = assay: Antimicrobial activity against Escherichia coli 25922 assessed as absence bacterial growth measured after 18 to 24 hrs incubation in presence of KCl by NCCLS method; assay type: functional; details: time 18-24 hrs
Acinetobacter baumannii [26] = assay: Antimicrobial activity against Acinetobacter baumannii 1.6769 assessed as absence bacterial growth measured after 18 to 24 hrs incubation by NCCLS method; assay type: functional; details: time 18-24 hrs
Staphylococcus aureus [27] = assay: Antimicrobial activity against Staphylococcus aureus 29213 assessed as absence bacterial growth measured after 18 to 24 hrs incubation by NCCLS m; assay type: functional; details: time 18-24 hrs
Enterococcus faecalis [28] = assay: Antimicrobial activity against Enterococcus faecalis 29212 assessed as bacterial killing measured after 16 hrs incubation; assay type: functional
Listeria monocytogenes [29] = assay: Antimicrobial activity against Listeria monocytogenes 1.10753 assessed as bacterial killing measured after 16 hrs incubation; assay type: functional
Staphylococcus aureus [30] = assay: Antimicrobial activity against Staphylococcus aureus 29213 assessed as bacterial killing measured after 16 hrs incubation; assay type: functional
[31] = test system: Staphylococcus epidermidis; assay: Antimicrobial activity against Staphylococcus epidermidis 12228 assessed as absence bacterial growth measured after 18 to 24 hrs incubation by NCCLS method; assay type: functional; details: time 18-24 hrs
[32] = Cytotoxicity against human HEK-293T cells assessed as cell survival rate measured after 8 hrs by MTT assay; assay type: toxicity, cell-based
Escherichia coli [33] = assay: Antimicrobial activity against Escherichia coli 25922 assessed as absence bacterial growth measured after 18 to 24 hrs incubation in presence of 12.5% serum by NCCLS method; assay type: functional; details: time 18-24 hrs
Staphylococcus aureus [34] = assay: Antimicrobial activity against Staphylococcus aureus 25923 assessed as bacterial killing measured after 16 hrs incubation; assay type: functional
Salmonella typhimurium [35] = assay: Antimicrobial activity against Salmonella typhimurium C7731 assessed as absence bacterial growth measured after 18 to 24 hrs incubation by NCCLS method; assay type: functional, Salmonella enterica subsp. enterica serovar Typhimurium; details: Salmonella enterica, time 18-24 hrs
[36] = Antimicrobial activity against Salmonella pullorum C7913 assessed as absence bacterial growth measured after 18 to 24 hrs incubation by NCCLS method; assay type: functional, Salmonella enterica subsp. enterica serovar Pullorum; details: Salmonella enterica, time 18-24 hrs
Escherichia coli [37] = assay: Antimicrobial activity against Escherichia coli 25922 assessed as absence bacterial growth measured after 18 to 24 hrs incubation in presence of ZnCl2 by NCCLS method; assay type: functional; details: time 18-24 hrs
Staphylococcus aureus [38] = assay: Antimicrobial activity against Methicillin-resistant Staphylococcus aureus 43300 assessed as bacterial killing measured after 16 hrs incubation; assay type: functional
[39] = Cytotoxicity against porcine IPEC-J2 cells assessed as cell survival rate measured after 8 hrs by MTT assay; assay type: toxicity, cell-based, Sus scrofa; details: pig
Pseudomonas aeruginosa [40] = assay: Antimicrobial activity against Pseudomonas aeruginosa 27853 assessed as bacterial killing measured after 16 hrs incubation; assay type: functional
Escherichia coli [41] = assay: Antimicrobial activity against Escherichia coli 25922 assessed as absence bacterial growth measured after 18 to 24 hrs incubation in presence of NH4Cl by NCCLS method; assay type: functional; details: time 18-24 hrs

H-AKLWLKGGKLWLKGGKLWLKG-NH2
MIC (Staphylococcus aureus [1]): > 32 µM | MBC (Escherichia coli [2]): 1 µM | MIC (Pseudomonas aeruginosa [3]): > 32 µM | MIC (Staphylococcus aureus [4]): > 32 µM | MIC (Escherichia coli [5]): > 32 µM | MIC (Escherichia coli [6]): 4 µM | MIC (Listeria monocytogenes [7]): > 32 µM | MIC (Escherichia coli [8]): 4 µM | MBC (Acinetobacter baumannii [9]): 16 µM | MBC (Salmonella typhimurium [10]): 16 µM | MBC (Bacillus cereus [11]): > 32 µM | hemolysis at 1 h, 128 µM [12]: < 10% | MBC (Salmonella typhimurium [13]): 32 µM | MIC (Escherichia coli [14]): > 32 µM | MIC (Escherichia coli [15]): > 32 µM | MIC (Escherichia coli [16]): 1 µM | MBC (Escherichia coli [17]): 8 µM | MIC (Salmonella typhimurium [18]): 4 µM | MIC (Escherichia coli [19]): 16 µM | MBC [20]: 2 µM | MIC (Bacillus cereus [21]): > 32 µM | MBC [22]: > 32 µM | HC10 (Erythrocyte): > 128 µM | IC50 at 8 h [23]: > 64 µM | MIC (Enterococcus faecalis [24]): > 32 µM | MIC (Escherichia coli [25]): 4 µM | MIC (Acinetobacter baumannii [26]): 16 µM | MIC (Staphylococcus aureus [27]): > 32 µM | MBC (Enterococcus faecalis [28]): > 32 µM | MBC (Listeria monocytogenes [29]): > 32 µM | MBC (Staphylococcus aureus [30]): > 32 µM | MIC [31]: > 32 µM | IC50 at 8 h [32]: > 64 µM | MIC (Escherichia coli [33]): > 32 µM | MBC (Staphylococcus aureus [34]): > 32 µM | MIC (Salmonella typhimurium [35]): 16 µM | MIC [36]: 2 µM | MIC (Escherichia coli [37]): 4 µM | MBC (Staphylococcus aureus [38]): > 32 µM | IC50 at 8 h [39]: > 64 µM | MBC (Pseudomonas aeruginosa [40]): > 32 µM | MIC (Escherichia coli [41]): 4 µM

H-GKLWLKGVKLWLKGGKLWLKG-NH2
MIC (Staphylococcus aureus [1]): 4 µM | MBC (Escherichia coli [2]): 0.5 µM | MIC (Pseudomonas aeruginosa [3]): 4 µM | MIC (Staphylococcus aureus [4]): 2 µM | MIC (Escherichia coli [5]): 4 µM | MIC (Escherichia coli [6]): 1 µM | MIC (Listeria monocytogenes [7]): > 32 µM | MIC (Escherichia coli [8]): 1 µM | MBC (Acinetobacter baumannii [9]): 4 µM | MBC (Salmonella typhimurium [10]): 2 µM | MBC (Bacillus cereus [11]): 4 µM | MBC (Salmonella typhimurium [13]): 8 µM | MIC (Escherichia coli [14]): > 32 µM | MIC (Escherichia coli [15]): > 32 µM | MIC (Escherichia coli [16]): 0.5 µM | MBC (Escherichia coli [17]): 1 µM | MIC (Salmonella typhimurium [18]): 2 µM | MIC (Escherichia coli [19]): 4 µM | MBC [20]: 0.5 µM | MIC (Bacillus cereus [21]): 4 µM | MBC [22]: 4 µM | HC10 (Erythrocyte): 128 µM | IC50 at 8 h [23]: 61.3 µM | MIC (Enterococcus faecalis [24]): 4 µM | MIC (Escherichia coli [25]): 1 µM | MIC (Acinetobacter baumannii [26]): 1 µM | MIC (Staphylococcus aureus [27]): 2 µM | MBC (Enterococcus faecalis [28]): 4 µM | MBC (Listeria monocytogenes [29]): > 32 µM | MBC (Staphylococcus aureus [30]): 4 µM | MIC [31]: 2 µM | IC50 at 8 h [32]: > 64 µM | MIC (Escherichia coli [33]): 16 µM | MBC (Staphylococcus aureus [34]): 4 µM | MIC (Salmonella typhimurium [35]): 4 µM | MIC [36]: 0.5 µM | MIC (Escherichia coli [37]): 1 µM | MBC (Staphylococcus aureus [38]): 2 µM | IC50 at 8 h [39]: 8.73 µM | MBC (Pseudomonas aeruginosa [40]): 4 µM | MIC (Escherichia coli [41]): 1 µM

H-GKLWLKGWKLWLKGGKLWLKG-NH2
MIC (Staphylococcus aureus [1]): 2 µM | MBC (Escherichia coli [2]): 1 µM | MIC (Pseudomonas aeruginosa [3]): 2 µM | MIC (Staphylococcus aureus [4]): 2 µM | MIC (Escherichia coli [5]): 2 µM | MIC (Escherichia coli [6]): 1 µM | MIC (Listeria monocytogenes [7]): > 32 µM | MIC (Escherichia coli [8]): 1 µM | MBC (Acinetobacter baumannii [9]): 2 µM | MBC (Salmonella typhimurium [10]): 4 µM | MBC (Bacillus cereus [11]): 4 µM | MBC (Salmonella typhimurium [13]): 8 µM | MIC (Escherichia coli [14]): 32 µM | MIC (Escherichia coli [15]): 32 µM | MIC (Escherichia coli [16]): 1 µM | MBC (Escherichia coli [17]): 1 µM | MIC (Salmonella typhimurium [18]): 2 µM | MIC (Escherichia coli [19]): 2 µM | MBC [20]: 1 µM | MIC (Bacillus cereus [21]): 1 µM | MBC [22]: 4 µM | HC10 (Erythrocyte): 32 µM | IC50 at 8 h [23]: 53.5 µM | MIC (Enterococcus faecalis [24]): 2 µM | MIC (Escherichia coli [25]): 1 µM | MIC (Acinetobacter baumannii [26]): 2 µM | MIC (Staphylococcus aureus [27]): 4 µM | MBC (Enterococcus faecalis [28]): 4 µM | MBC (Listeria monocytogenes [29]): > 32 µM | MBC (Staphylococcus aureus [30]): 4 µM | MIC [31]: 2 µM | IC50 at 8 h [32]: 61.9 µM | MIC (Escherichia coli [33]): 16 µM | MBC (Staphylococcus aureus [34]): 8 µM | MIC (Salmonella typhimurium [35]): 2 µM | MIC [36]: 1 µM | MIC (Escherichia coli [37]): 1 µM | MBC (Staphylococcus aureus [38]): 4 µM | IC50 at 8 h [39]: 3.9 µM | MBC (Pseudomonas aeruginosa [40]): 4 µM | MIC (Escherichia coli [41]): 2 µM

Source: ChEMBL document CHEMBL5518215, “Unlocking Antibacterial Potential: Key-Site-Based Regulation of Antibacterial Spectrum of Peptides” (J Med Chem, 2024)
